# Measurements from patent US20250320193A1, “OXOISOINDOLINYL SUBSTITUTED PIPERIDINEDIONE DERIVATIVE AND USE THEREOF” (GLUETACS THERAPEUTICS (SHANGHAI) CO., LTD., priority 2022, published 2025).
# Molecular target: human Cereblon WT GST-tagged protein (Homo sapiens (Human), UniProt Q96SW2)
# Experiment: CRBN-binding affinity, HTRF (CEREBLON BINDING kit, CISBIO)
# Settings: HTRF inhibitory activity
# Procedure: I. Determination of CRBN-binding affinity of compounds of the present disclosure:
# The CEREBLON BINDING kits (specification: 10,000 tests; product number: Catalog #64BDCRBNPEH; CISBIO company) was used to determine the CRBN binding ability of the compounds to be tested through a HTRF method (homogeneous time-resolved fluorescence). The specific methods are as follows: • 1. […] Then, 2.5 μL of human Cereblon WT GST-tagged protein solution was added to each well. Finally, 5 μL of the thoroughly mixed Thalidomide-Red reagent and GST Eu antibody working solution were added to each of the aforementioned wells. […] The blank control wells were sequentially added with 2.5 μL of diluent #9 (1X) solution, 2.5 μL of PROTAC binding buffer, and 5 μL of thoroughly mixed Thalidomide-Red reagent and GST Eu antibody working solution. • 4.
# The corresponding CRBN binding inhibition rate was calculated using the following method: […]
# OD 620 nmcompound is the absorbance value of each well of the compounds to be tested of the present disclosure at an emission wavelength of 620 nm. […] OD 620 nmcontrol is the absorbance value of the blank control well at an emission wavelength of 620 nm. […] OD 620 nmStd0 is the absorbance value of the solvent control well at an emission wavelength of 620 nm.
# Sequence of human Cereblon WT GST-tagged protein (Q96SW2 whole entry): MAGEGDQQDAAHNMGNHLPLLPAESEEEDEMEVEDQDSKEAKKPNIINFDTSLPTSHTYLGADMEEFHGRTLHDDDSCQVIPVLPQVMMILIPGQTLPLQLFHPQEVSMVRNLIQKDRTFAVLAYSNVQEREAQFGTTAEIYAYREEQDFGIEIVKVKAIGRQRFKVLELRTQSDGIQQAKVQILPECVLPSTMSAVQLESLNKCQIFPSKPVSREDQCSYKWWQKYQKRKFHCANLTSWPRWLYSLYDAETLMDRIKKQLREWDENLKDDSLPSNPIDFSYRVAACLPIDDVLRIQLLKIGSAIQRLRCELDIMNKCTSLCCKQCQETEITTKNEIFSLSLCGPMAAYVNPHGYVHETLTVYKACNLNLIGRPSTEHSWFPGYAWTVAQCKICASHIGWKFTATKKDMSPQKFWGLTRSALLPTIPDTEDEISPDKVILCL
row,SMILES,IC50
1,"O=C1CCC(N2Cc3cc(C(=O)N4C5CCC4CN(C(c4ccccc4)c4ccccc4)C5)cc(F)c3C2=O)C(=O)N1 (stereo not drawn) [GT-06055, 3-(5-(3-benzhydryl-3,8-diazabicyclo[3.2.1]octane-8-carbonyl)-7-fluoro-1-oxoisoindolin-2-yl)piperidine-2,6-dione]",< 500 nM
2,"O=C1CCC(N2Cc3cc(N4CC5CCC(C4)N5C(c4ccccc4)c4ccccc4)ccc3C2=O)C(=O)N1 (stereo not drawn) [GT-05865, 3-(5-(8-benzhydryl-3,8-diazabicyclo[3.2.1]octan-3-yl)-1-oxoisoindolin-2-yl)piperidine-2,6-dione]",500 to 1000 nM
3,"CC1CN(C(c2ccccc2)c2ccccc2)CC(C)N1C(=O)c1cc(F)c2c(c1)CN(C1CCC(=O)NC1=O)C2=O (stereo not drawn) [GT-05921, 3-(5-(4-benzhydryl-2,6-dimethylpiperazine-1-carbonyl)-7-fluoro-1-oxoisoindolin-2-yl)piperidine-2,6-dione]",500 to 1000 nM
4,"O=C1CCC(N2Cc3cc(C(=O)N4CC5CCC(C4)N5C(c4ccccc4)c4ccccc4)cc(F)c3C2=O)C(=O)N1 (stereo not drawn) [GT-05981, 3-(5-(8-benzhydryl-3,8-diazabicyclo[3.2.1]octane-3-carbonyl)-7-fluoro-1-oxoisoindolin-2-yl)piperidine-2,6-dione]",500 to 1000 nM
5,"O=C1CCC(N2Cc3cc(CN4CCC5(CC4)CCN(C(c4ccccc4)c4ccccc4)CC5)ccc3C2=O)C(=O)N1 (stereo not drawn) [GT-06002, 3-(5-((9-benzhydryl-3,9-diazaspiro[5.5]undecan-3-yl)methyl)-1-oxoisoindolin-2-yl)piperidine-2,6-dione]",500 to 1000 nM
6,"O=C1CCC(N2C(=O)c3ccc(CN4C5CC4CN(C(c4ccccc4)c4ccccc4)C5)cc3C2=O)C(=O)N1 (stereo not drawn) [GT-05728, 5-((3-benzhydryl-3,6-diazabicyclo[3.1.1]heptan-6-yl)methyl)-2-(2,6-dioxopiperidin-3-yl) isoindoline-1,3-dione]",1000 to 1900 nM
7,"CC1(C)CN(Cc2ccc3c(c2)CN(C2CCC(=O)NC2=O)C3=O)CCN1C(c1ccccc1)c1ccccc1 (stereo not drawn) [GT-04165, 3-(5-((4-benzhydryl-3,3-dimethylpiperazin-1-yl)methyl)-1-oxoisoindolin-2-yl)piperidine-2,6-dione]",< 500 nM
8,"O=C1CCC(N2Cc3cc(CN4CC5CCC(C4)N5C(c4ccccc4)c4ccccc4)c(F)cc3C2=O)C(=O)N1 (stereo not drawn) [GT-05896, 3-(5-((8-benzhydryl-3,8-diazabicyclo[3.2.1]octan-3-yl)methyl)-6-fluoro-1-oxoisoindolin-2-yl)piperidine-2,6-dione]",500 to 1000 nM
9,"O=C1CCC(N2Cc3cc(C4CCN(C(c5ccccc5)c5ccccc5)CC4)cc(F)c3C2=O)C(=O)N1 (stereo not drawn) [GT-06198, 3-(5-(1-benzhydrylpiperidin-4-yl)-7-fluoro-1-oxoisoindolin-2-yl)piperidine-2,6-dione]",< 500 nM
10,"O=C1CCC(N2Cc3cc(CN4CC5CCC(C4)N5C(c4ccccc4)c4ccccc4)cc(F)c3C2=O)C(=O)N1 (stereo not drawn) [GT-05897, 3-(5-((8-benzhydryl-3,8-diazabicyclo[3.2.1]octan-3-yl)methyl)-7-fluoro-1-oxoisoindolin-2-yl)piperidine-2,6-dione]",500 to 1000 nM
11,"O=C1CCC(N2Cc3cccc(CN4CCN(C(c5ccc(Cl)cc5)c5ccc(Cl)cc5)CC4)c3C2=O)C(=O)N1 (stereo not drawn) [GT-05736, 3-(7-((4-(bis(4-chlorophenyl)methyl)piperazin-1-yl)methyl)-1-oxoisoindolin-2-yl)piperidine-2,6-dione]",1000 to 1900 nM
12,"O=C1CCC(N2Cc3c(ccc(CN4CC5(CCN(C(c6ccccc6)c6ccccc6)CC5)C4)c3F)C2=O)C(=O)N1 (stereo not drawn) [GT-05902, 3-(5-((7-benzhydryl-2,7-diazaspiro[3.5]nonan-2-yl)methyl)-4-fluoro-1-oxoisoindolin-2-yl)piperidine-2,6-dione]",500 to 1000 nM
13,"O=C1CCC(N2Cc3cc(NC4CCC(N(c5ccccc5)c5ccccc5)CC4)ccc3C2=O)C(=O)N1 (stereo not drawn) [GT-06806, 3-(5-((4-(diphenylamino)cyclohexyl)amino)-1-oxoisoindolin-2-yl)piperidine-2,6-dione]",1000 to 1900 nM
14,"O=C1CCC(N2Cc3cc(-c4ccc(CN5CCN(C(c6ccccc6)c6ccccc6)CC5)cc4)ccc3C2=O)C(=O)N1 (stereo not drawn) [GT-05867, 3-(5-(4-((4-benzhydrylpiperazin-1-yl)methyl)phenyl)-1-oxoisoindolin-2-yl)piperidine-2,6-dione]",1000 to 1900 nM
15,"O=C1CCC(N2C(=O)c3ccc(C(=O)N4C5CC4CN(C(c4ccccc4)c4ccccc4)C5)cc3C2=O)C(=O)N1 (stereo not drawn) [GT-05918, 5-(3-benzhydryl-3,6-diazabicyclo[3.1.1]heptane-6-carbonyl)-2-(2,6-dioxopiperidin-3-yl) isoindoline-1,3-dione]",1000 to 1900 nM
16,"O=C1CCC(N2Cc3cc(CN4CCN(C(c5ccccc5)c5ccccn5)CC4)cc(F)c3C2=O)C(=O)N1 (stereo not drawn) [GT-03834, 3-(7-fluoro-1-oxo-5-((4-(phenyl(pyridin-2-yl)methyl)piperazin-1-yl)methyl)isoindolin-2-yl)piperidine-2,6-dione]",< 500 nM
17,"O=C1CCC(N2Cc3cc(CN4C[C@H]5C[C@@H]4CN5C(c4ccccc4)c4ccccc4)cc(F)c3C2=O)C(=O)N1 (stereo partly drawn) [GT-03576, 3-(5-(((1R,4R)-5-benzhydryl-2,5-diazabicyclo[2.2.1]heptan-2-yl)methyl)-7-fluoro-1-oxoisoindolin-2-yl)piperidine-2,6-dione]",< 500 nM

# Now from value to compound:
row,IC50,SMILES
1,< 500 nM,"O=C1CCC(N2Cc3cc(CN4C[C@@H]5C[C@H]4CN5C(c4ccccc4)c4ccccc4)cc(F)c3C2=O)C(=O)N1 (stereo partly drawn) [GT-05895, 3-(5-(((1S,4S)-5-benzhydryl-2,5-diazabicyclo[2.2.1]heptan-2-yl)methyl)-7-fluoro-1-oxoisoindolin-2-yl)piperidine-2,6-dione]"
2,1000 to 1900 nM,"O=C1CCC(N2Cc3cc(CN4CCC5(CCN(C(c6ccccc6)c6ccccc6)CC5)C4)ccc3C2=O)C(=O)N1 (stereo not drawn) [GT-05969, 3-(5-((8-benzhydryl-2,8-diazaspiro[4.5]decan-2-yl)methyl)-1-oxoisoindolin-2-yl)piperidine-2,6-dione]"
3,1000 to 1900 nM,"O=C1CCC(N2Cc3c(CN4CCN(C(c5ccccn5)c5ccccn5)CC4)cccc3C2=O)C(=O)N1 (stereo not drawn) [GT-05715, 3-(4-((4-(di(pyridin-2-yl)methyl)piperazin-1-yl)methyl)-1-oxoisoindolin-2-yl)piperidine-2,6-dione]"
4,1000 to 1900 nM,"O=C1CCC(N2Cc3cc(C(=O)N4C[C@@H]5C[C@H]4CN5C(c4ccccc4)c4ccccc4)cc(F)c3C2=O)C(=O)N1 (stereo partly drawn) [GT-05978, 3-(5-((1S,4S)-5-benzhydryl-2,5-diazabicyclo[2.2.1]heptane-2-carbonyl)-7-fluoro-1-oxoisoindolin-2-yl)piperidine-2,6-dione]"
5,< 500 nM,"CC1CN(C(c2ccccc2)c2ccccc2)CC(C)N1Cc1cc(F)c2c(c1)CN(C1CCC(=O)NC1=O)C2=O (stereo not drawn) [GT-03874, 3-(5-((4-benzhydryl-2,6-dimethylpiperazin-1-yl)methyl)-7-fluoro-1-oxoisoindolin-2-yl)piperidine-2,6-dione]"
6,500 to 1000 nM,"O=C1CCC(N2Cc3cc(CN4CC5(CCN(C(c6ccccc6)c6ccccc6)CC5)C4)c(F)cc3C2=O)C(=O)N1 (stereo not drawn) [GT-05903, 3-(5-((7-benzhydryl-2,7-diazaspiro[3.5]nonan-2-yl)methyl)-6-fluoro-1-oxoisoindolin-2-yl)piperidine-2,6-dione]"
7,1000 to 1900 nM,"O=C1CCC(N2Cc3cc(C(=O)N4CCN(C(c5ccc(Cl)cc5)c5ccc(Cl)cc5)CC4)cc(F)c3C2=O)C(=O)N1 (stereo not drawn) [GT-05887, 3-(5-(4-(bis(4-chlorophenyl)methyl)piperazine-1-carbonyl)-7-fluoro-1-oxoisoindolin-2-yl)piperidine-2,6-dione]"
8,500 to 1000 nM,"O=C1CCC(N2Cc3c(CN4CCN(C(c5ccccc5)c5ccccc5)CC4)cccc3C2=O)C(=O)N1 (stereo not drawn) [GT-03646, 3-(4-((4-benzhydrylpiperazin-1-yl)methyl)-1-oxoisoindolin-2-yl)piperidine-2,6-dione]"
9,< 500 nM,"CC1CN(C(=O)c2ccc3c(c2)CN(C2CCC(=O)NC2=O)C3=O)CC(C)N1C(c1ccccc1)c1ccccc1 (stereo not drawn) [GT-06059, 3-(5-(4-benzhydryl-3,5-dimethylpiperazine-1-carbonyl)-1-oxoisoindolin-2-yl)piperidine-2,6-dione]"
10,< 500 nM,"O=C1CCC(N2Cc3cc(CN4C(=O)c5cccc6cccc(c56)C4=O)ccc3C2=O)C(=O)N1 (stereo not drawn) [GT-04244, 2-((2-(2,6-dioxopiperidin-3-yl)-1-oxoisoindolin-5-yl)methyl)-1H-benzo[de]isoquinoline-1,3(2H)-dione]"
11,500 to 1000 nM,"O=C1CCC(N2Cc3cc(CN4CCC5(CC4)CCN(C(c4ccccc4)c4ccccc4)CC5)cc(F)c3C2=O)C(=O)N1 (stereo not drawn) [GT-06026, 3-(5-((9-benzhydryl-3,9-diazaspiro[5.5]undecan-3-yl)methyl)-7-fluoro-1-oxoisoindolin-2-yl)piperidine-2,6-dione]"
12,500 to 1000 nM,"O=C1CCC(N2Cc3ccc(CN4CCN(C(c5cccc(F)c5)c5cccc(F)c5)CC4)cc3C2=O)C(=O)N1 (stereo not drawn) [GT-06116, 3-(6-((4-(bis(3-fluorophenyl)methyl)piperazin-1-yl)methyl)-1-oxoisoindolin-2-yl)piperidine-2,6-dione]"
13,< 500 nM,"O=C1CCC(N2Cc3cc(CN4CCN(C(c5ccccc5)c5cccnc5)CC4)cc(F)c3C2=O)C(=O)N1 (stereo not drawn) [GT-06111, 3-(7-fluoro-1-oxo-5-((4-(phenyl(pyridin-3-yl)methyl)piperazin-1-yl)methyl)isoindolin-2-yl)piperidine-2,6-dione]"
